Assays:
[1] = system: P. aurifer; assay: Field trapping Experiment 2, DMNT dose-response with W•H•Y top attractants; format: in vivo, Polistes aurifer; conditions: Exp 2, DMNT added to WHY top attractant
Procedure: (§1) Three field trapping experiments were carried out during late July to early August 2009, in residential and woody areas around Spokane, Wash., USA, using the newly marketed Rescue® W•H•Y traps (www.rescue.com). As used herein, the W•H•Y trap is a trap in accordance with the description of United States Patent Application Publication No. 2009/0151228. The W•H•Y trap has a top chamber and a bottom chamber. The top chamber is baited with two attractants—one of which is a solid contained in a vial (2-methyl-1-butanol) and the other a liquid mixed with water (acetic acid), herein referred to as the W•H•Y top attractant. The bottom chamber is baited with a liquid attractant (heptyl butyrate) poured onto a cotton pad, herein referred to as the W•H•Y bottom attractant. Separation of the top and bottom attractants (otherwise antagonistic to each other when released from the same chamber) in two chambers was a design feature of this trap and creates two focal attraction sources from one trap for different species of wasps, hornets, and yellowjackets. Traps were hung 1.5-2.0 m above the ground on either the fence or tree branches ca. 5 m apart within each trap line. For each trapping experiment, six sets of traps were deployed with their initial trap positions within each set being randomized. To minimize positional effects and obtain more replications, wasp collections and trap re-randomization were carried out when ≧10-20 wasps were caught in the best trap. Each replicate lasted several days depending on wasp flight activity. Captured wasps were removed from the traps and kept in the zip-bags before taking back to the laboratory for recording of the species, gender status, and catch.
(§2) Experiment 3 (Aug. 5-13, 2009) was conducted to determine the potential behavioral activity of different doses of (E)-4,8-dimethyl-1,3,7-nonatriene alone. The individual (or different doses) HIPVs were loaded into either polyethylene bags or centrifuge tube type of dispensers, and released from the top of the W•H•Y trap chamber. W•H•Y trap attractants (both top and bottom or top only) alone and water (top chamber only) were included in the test as positive and blank controls, respectively. The dispenser types, loading and release rates of the tested semiochemicals are described in Tables 1, 2 and 3.
(§3) Trap catch data were converted to proportion (P) of total captured wasps within each replicate. Data were then transformed by arcsin√P to meet the assumptions of normality and homogeneity of variances for ANOVA. Means were compared by ANOVA followed by the Ryan-Einot-Gabriel-Welsh (REGW) multiple Q test (SPSS 16.0 for Windows) at α=0.05.

[2] = system: V. vulgaris; assay: Field trapping Experiment 3, different doses of DMNT alone; format: in vivo, Vespula vulgaris
Procedure: as §1, §2, §3

[3] = system: P. aurifer; assay: as above; format: in vivo, Polistes aurifer
Procedure: as §1, §2, §3

[4] = Exp 3, release rate 0.25, hole 0.5 mm, loading 15 μL
[5] = Exp 3, release rate 0.5, hole 1 mm, loading 30 μL
[6] = Exp 3, release rate 1, hole 2 mm, loading 75 μL
[7] = Exp 3, release rate 1.5, hole 3 mm, loading 175 μL
[8] = Exp 3, release rate 2, hole 5.5 mm, loading 325 μL

C=C/C=C(\C)CCC=C(C)C [(E)-4,8-dimethyl-1,3,7-nonatriene]
Total Paper Wasps Caught P. aurifer ([1]; release rate 0.25, hole 0.5 mm, loading 15 μL): 0 | Total Paper Wasps Caught P. aurifer ([1]; release rate 0.5, hole 1 mm, loading 30 μL): 0 | Total Paper Wasps Caught P. aurifer ([1]; release rate 1, hole 2 mm, loading 75 μL): 0 | Total Paper Wasps Caught P. aurifer ([1]; release rate 1.5, hole 3 mm, loading 175 μL): 0 | Total Paper Wasps Caught P. aurifer ([1]; release rate 2, hole 5.5 mm, loading 325 μL): 0 | Total Yellowjackets Caught V. vulgaris [2, 4]: 4 | Total Yellowjackets Caught V. vulgaris [2, 5]: 6 | Total Yellowjackets Caught V. vulgaris [2, 6]: 4 | Total Yellowjackets Caught V. vulgaris [2, 7]: 2 | Total Yellowjackets Caught V. vulgaris [2, 8]: 5 | Total Paper Wasps Caught P. aurifer [3, 4]: 3 | Total Paper Wasps Caught P. aurifer [3, 5]: 1 | Total Paper Wasps Caught P. aurifer [3, 6]: 0 | Total Paper Wasps Caught P. aurifer [3, 7]: 5 | Total Paper Wasps Caught P. aurifer [3, 8]: 0

Source: patent US20110165115A1, “SYNERGISTIC ATTRACTANTS FOR PESTIFEROUS SOCIAL INSECTS” (STERLING INTERNATIONAL INC., priority 2010, published 2011)
